Laboratory results taken from patent US20100285095A1 (priority 2009, published 2010).
“And” between values parts separate entries of the source, which are not always exact repeats. Identical values can stand only once. Like-named read-outs stand apart in the source and are kept apart here.

Legend:
[1] = tested on: S. aureus MN 8; assay type: cell-based, Staphylococcus aureus
[2] = physchem; conditions: 25 °C, water
[3] = % reduction per mM Ca added, higher concentrations, Ca (mM) as in Table 2: chloride 75.6, stearate 98.8, lactate 53.1, citrate malate 22.6, glycerate 39.7, gluconate 38.4, α-D-heptagluconate 38.1
[4] = % reduction per mM Ca added, low concentrations, Ca (mM) as in Table 1: chloride 15.1, stearate 9.9, lactate 8.8, citrate malate 6.8, glycerate 4.0, gluconate 3.8, α-D-heptagluconate 3.8
[5] = reduction of TSST-1 vs. PBS and BHI control, low concentrations, Ca (mM) added to shake flask: calcium chloride 15.1, calcium stearate 9.9 (solid added directly into the media), calcium lactate 8.8, calcium citrate malate 6.8, calcium glycerate 4.0, calcium gluconate 3.8, calcium α-D-heptagluconate 3.8
[6] = % reduction per mM Ca added, Ca 4.0 mM added to shake flask

calcium stearate [reference compound]
% TSST-1 Change (μg/ml/mM) vs. control [1, 3]: 0.6% | % TSST-1 Change (μg/ml/mM) vs. control [1, 4]: 6.6% | % TSST-1 Change (μg/mL) vs. control [1, 5]: 65%

O=C(O)C(O)CO (stereo not drawn) [calcium glycerate]
% TSST-1 Change (μg/ml/mM) vs. control [1, 3]: 2.5% | % TSST-1 Change (μg/ml/mM) vs. control [1, 4]: 17.0% | % TSST-1 Change (μg/mL) vs. control [1, 5]: 68% | solubility [2]: 349 mM

O=C(O)C(O)CO (racemic) [calcium glycerate]
% TSST-1 Change (μg/ml/mM) vs. control [1, 6]: 17.0%

[Ca+2].[Cl-].[Cl-] [calcium chloride, reference compound]
% TSST-1 Change (μg/ml/mM) vs. control [1, 3]: 1.1% | % TSST-1 Change (μg/ml/mM) vs. control [1, 4]: 2.5% | % TSST-1 Change (μg/mL) vs. control [1, 5]: 37%

CC(O)C(=O)[O-].CC(O)C(=O)[O-].[Ca+2] (stereo not drawn) [calcium lactate, reference compound]
% TSST-1 Change (μg/ml/mM) vs. control [1, 3]: 1.7% | % TSST-1 Change (μg/ml/mM) vs. control [1, 4]: 5.6% | % TSST-1 Change (μg/mL) vs. control [1, 5]: 49%

O=C([O-])[C@@H](O)CO.O=C([O-])[C@@H](O)CO.[Ca+2] [calcium L-glycerate]
% TSST-1 Change (μg/ml/mM) vs. control [1, 6]: 15.3%

calcium citrate malate [reference compound]
% TSST-1 Change (μg/ml/mM) vs. control [1, 3]: 3.9% | % TSST-1 Change (μg/ml/mM) vs. control [1, 4]: 13.1% | % TSST-1 Change (μg/mL) vs. control [1, 5]: 89%

calcium gluconate
% TSST-1 Change (μg/ml/mM) vs. control [1, 3]: 2.5% | % TSST-1 Change (μg/ml/mM) vs. control [1, 4]: 21.3% | % TSST-1 Change (μg/mL) vs. control [1, 5]: 81%

O=C([O-])C(O)CO.O=C([O-])C(O)CO.[Ca+2] [calcium D-glycerate]
% TSST-1 Change (μg/ml/mM) vs. control [1, 6]: 22.9%

O=C([O-])C(O)[C@H](O)[C@@H](O)[C@H](O)[C@H](O)CO.O=C([O-])C(O)[C@H](O)[C@@H](O)[C@H](O)[C@H](O)CO.[Ca+2] (stereo partly drawn) [calcium α-D-heptagluconate]
% TSST-1 Change (μg/mL) vs. control [1]: 47% | % TSST-1 Change (μg/ml/mM) vs. control [1]: 12.5% and 2.6%
